Results: PMC6130518, “Investigation of the effective components of the flowers of Trollius chinensis from the perspectives of intestinal bacterial transformation and intestinal absorption” (Pharmaceutical Biology, 2017)
“Also recorded” adds a separate entry of the source. Where two headings read alike, the source gives them in different places.

Columns and labels:
[1] = Absorption experiment with everted gut sacs; details: Sprague-Dawley, rat
[2] = tested on: everted gut sacs (jejunum); assay: Absorption experiment with everted gut sacs; details: for transport percentage: Everted gut sacs, AP→BL; for After transported with everted gut sacs: intestinal bacterial transformed AEOF
Caco-2 cell monolayers = assay: Transport experiment with Caco-2 cell monolayers; details: for transport percentage: Caco-2 cell monolayers; for After transported with Caco-2 cell monolayers: intestinal bacterial transformed AEOF
Description: (§1) The Caco-2 cells were cultured in the culture medium consisting of Dulbecco’s Modified Eagle Medium (DMEM, Gibco Inc., Grand Island, CA)-fetal bovine serum (FBS, Gibco Inc., Grand Island, CA)-nonessential amino acids (NEAA, Corning Costar, Cambridge, MA)-‘penicillin-streptomycin’ (Corning Costar, Cambridge, MA) (100:10:1:1, v/v/v/v) in 25 cm^2 flasks, which were incubated in 5% CO2 and constant temperature (37 °C) and humidity in the incubator. The culture medium was replaced every 2 or 3 days, and the cells were split 1:2 or 1:3 to conduct passage when they reached 80% confluence.
(§2) About 1.5 mL of the culture medium was added into the basal (BL) side of each well of the 12-well Transwell plates (insert diameter 12 mm, pore size 3.0 μm, membrane growth area 1.12 cm^2, Corning Costar, Cambridge, MA), and 0.5 mL of the Caco-2 cell suspension at the density of 2.0 × 10^5 cells/mL was seeded into the apical (AP) side of each insert. The cells were incubated in 5% CO2 and constant temperature (37 °C) and humidity in the incubator. The culture medium in both AP and BL sides was replaced every other day in the first week, then that in AP side was replaced every day and that in BL side was replaced every other day. The cells would differentiate and form a confluent monolayer. The integrity and viability of the cell monolayers were evaluated by measuring transepithelial electrical resistance (TEER) values in the culture medium at 37 °C using a Millicell®-ERS system (Millipore Corp., Bedford, MA), and only the inserts with the TEER above 600 Ω/cm^2 on day 21 were selected to perform the transport experiment.
(§3) About 200 μL of the solution in the receiving chambers was collected at 30, 60, 90, 120, 150, and 180 min, respectively, and then the same volume of HBSS was added. All samples were stored at −20 °C and filtered through a 0.45 μm membrane filter for HPLC analysis.
(§4) The HPLC conditions used for the analysis of the intestinal bacterial transformed AEOF before and after transport experiment was the same as above.
(§5) The transport percentage (%) was calculated using the formula transport percentage (%) = dQ/(C0 × V) × 100, wherein, V (mL) represented the volume of the donor compartment.

[3] = Transport experiment with Caco-2 cell monolayers; details: human, Caco-2, Papp, Caco-2 cell monolayers; for Papp at 180 min, 10 mg/mL: extract 10 mg/mL; for Papp at 180 min, 20 mg/mL: extract 20 mg/mL; for Papp at 180 min, 30 mg/mL: extract 30 mg/mL
Description: as §1, §2, §3, §4, §5

[4] = previous study, cited from earlier work
[5] = tested on: activated intestinal bacteria; assay: Intestinal bacterial transformation of AEOF; format: in vitro ADME, human; details: for After transformed by intestinal bacteria / Before transformed by intestinal bacteria: content in the extract; for transformation by intestinal bacteria (in words): in AEOF 15.0, 30.0, 60.0 mg/mL, up to 72 h, single person derived- or multiple people-derived intestinal bacteria
Description: Each 3 g of fresh feces from 3 healthy men and 3 healthy women of 23–25 years old was suspended in 200 mL of general anaerobic medium (GAM, including L-cystine hydrochloride, soluble starch, pepsin, tryptone, peptone, soy peptone, serum powder, yeast extract, beef extract, and beef liver extract powder purchased from Beijing Aoboxing Biotechnology Co., Ltd, Beijing, China) broth prepared as per a literature (Yang & Xu [2011]), respectively, and cultured in an anaerobic incubator (Shanghai Cimomedical Appliance Co., Ltd., Shanghai, China) at 37 °C for 24 h (Tsuchihashi et al. [2009]). […] Each 100 μL of the activated intestinal bacteria from the 6 volunteers were added into 11.4 mL of GAM, mixed adequately, and incubated in the same conditions as previously to obtain the mixture of activated intestinal bacteria. About 0.4513, 0.9026, and 1.8052 g of AEOF were dissolved in 30 mL of GAM on a super clean bench (Beijing Great Wall Air Purification Co. Ltd., Beijing, China), respectively, to generate the experimental groups. Then, the triplicate GAM containing AEOF was divided into 24 screw-cap test tubes, and each screw-cap test tube had 3 mL of the GAM and 100 μL of the activated intestinal bacteria and the mixture of activated intestinal bacteria, respectively. They were incubated under the same condition, and the test tubes of each concentration in triplicate were removed from the anaerobic incubator at 0, 2, 4, 6, 12, 24, 48, and 72 h. About 100 μL of the bacterial suspension was replaced with GAM to obtain the control group. The GAM absent of the AEOF was used as the blank group. […] About 300 μL of the supernatant was collected, filtered through a 0.45 μm membrane filter, and stored at −20 °C before HPLC analysis.
The HPLC analysis was performed using a Waters 1500 series (Waters Business Operations, Milford, MA) equipped with a 1525 binary HPLC pump, an on-line degasser, a manual injector and a 2489 UV/Visible detector. […] The temperature was set at 35 °C and the UV detecting wavelengths were 254 and 365 nm. The mobile phase consisted of acetonitrile (HPLC grade, Fisher Co., Pittsburgh, PA) (A) and 1.0% acetic acid (Beijing Chemical Works, Beijing, China) in purified water (v/v) (B), and the gradient elution program was as follows: 5–10% A (0–5 min), 10–20% A (5–10 min), 20–25% A (10–22 min), 25–40% A (22–35 min), 40–50% A (35–40 min), and 50–5% A (40–42 min) at a flow rate of 1.0 mL/min. The volume injected was 5 μL.

[6] = first of three lines per compound (lowest concentration; 10, 20, 30 mg/mL)
[7] = second of three lines per compound (middle concentration, not given)
[8] = third of three lines per compound (highest concentration, not given)
[9] = first of three lines per compound (lowest extract concentration)
[10] = first of three lines per compound (lowest extract concentration; AEOF 15, 30, 60 mg/mL)
[11] = second of three lines per compound (middle extract concentration, not given)
[12] = third of three lines per compound (highest extract concentration, not given)
[13] = ref Liu et al. [2014], Wu et al. [2014]

Row | Structure (SMILES) | Papp at 180 min, 10 mg/mL [1] | Papp at 180 min, 20 mg/mL [1] | Papp at 180 min, 30 mg/mL [1] | transport percentage ([2]; extract 10 mg/mL) | transport percentage ([2]; extract 20 mg/mL) | transport percentage ([2]; extract 30 mg/mL) | After transported with everted gut sacs [2, 6] | After transported with everted gut sacs [2, 7] | After transported with everted gut sacs [2, 8] | transport percentage (Caco-2 cell monolayers; extract 10 mg/mL, AP→BL) | transport percentage (Caco-2 cell monolayers; extract 10 mg/mL, BL→AP) | transport percentage (Caco-2 cell monolayers; extract 20 mg/mL, AP→BL) | transport percentage (Caco-2 cell monolayers; extract 20 mg/mL, BL→AP) | transport percentage (Caco-2 cell monolayers; extract 30 mg/mL, AP→BL) | transport percentage (Caco-2 cell monolayers; extract 30 mg/mL, BL→AP) | After transported with Caco-2 cell monolayers (Caco-2 cell monolayers; [6]) | After transported with Caco-2 cell monolayers (Caco-2 cell monolayers; [7]) | After transported with Caco-2 cell monolayers (Caco-2 cell monolayers; [8]) | Papp at 180 min, 10 mg/mL ([3]; AP→BL) | Papp at 180 min, 10 mg/mL ([3]; BL→AP) | other results
1 | O=c1cc(-c2ccc(O)cc2)oc2c([C@@H]3O[C@H](CO)[C@@H](O)[C@H](O)[C@H]3O)c(O)cc(O)c12 [vitexin] | 26 ± 2.8 ×10⁻⁶ cm/s | 15.5 ± 1.1 ×10⁻⁶ cm/s | 38.1 ± 5 ×10⁻⁶ cm/s | 5.55% | 2.94% | 7.55% | 0.11 µg/mL | 0.14 µg/mL | 0.50 µg/mL | 47.97% | 11.43% | 16.41% | 6.61% | 40.90% | 8.74% | 0.19 µg/mL | 0.23 µg/mL | 0.39 µg/mL | 39.6 ± 0.5 ×10⁻⁶ cm/s | 28.3 ± 2.7 ×10⁻⁶ cm/s | Papp at 180 min, 20 mg/mL ([3]; AP→BL): 13.6 ± 1.5 ×10⁻⁶ cm/s; Papp at 180 min, 20 mg/mL ([3]; BL→AP): 16.4 ± 0.5 ×10⁻⁶ cm/s; Papp at 180 min, 30 mg/mL ([3]; AP→BL): 33.8 ± 2.8 ×10⁻⁶ cm/s; Papp at 180 min, 30 mg/mL ([3]; BL→AP): 21.6 ± 0.5 ×10⁻⁶ cm/s; absorption mechanism ([4]; ref Liu et al. [2015]): transporter mediated efflux in addition to passive diffusion; After transformed by intestinal bacteria [5, 9]: 3.10 µg/mL; Before transformed by intestinal bacteria [5, 10]: 2.98 µg/mL; After transformed by intestinal bacteria [5, 11]: 5.70 µg/mL; Before transformed by intestinal bacteria [5, 11]: 5.11 µg/mL; After transformed by intestinal bacteria [5, 12]: 11.19 µg/mL; Before transformed by intestinal bacteria [5, 12]: 11.04 µg/mL; transformation by intestinal bacteria (in words) [5]: not transformed; also recorded: not changed
2 | O=C1CC[C@H]2c3cc(O)c(O)cc3CCN12 [trolline] | 138 ± 1 ×10⁻⁶ cm/s | 107 ± 5 ×10⁻⁶ cm/s | 151 ± 4 ×10⁻⁶ cm/s | 29.42% | 20.32% | 30.00% | 4.33 µg/mL | 6.97 µg/mL | 14.76 µg/mL | 135.43% | 93.13% | 153.03% | 78.21% | 130.00% | 74.30% | 8.10 µg/mL | 13.59 µg/mL | 19.15 µg/mL | 112 ± 7 ×10⁻⁶ cm/s | 231 ± 7 ×10⁻⁶ cm/s | Papp at 180 min, 20 mg/mL ([3]; AP→BL): 127 ± 12 ×10⁻⁶ cm/s; Papp at 180 min, 20 mg/mL ([3]; BL→AP): 194 ± 2 ×10⁻⁶ cm/s; Papp at 180 min, 30 mg/mL ([3]; AP→BL): 107 ± 6 ×10⁻⁶ cm/s; Papp at 180 min, 30 mg/mL ([3]; BL→AP): 184 ± 11 ×10⁻⁶ cm/s; absorption mechanism [4, 13]: an associative mechanism including both active and passive transports; After transformed by intestinal bacteria [5, 9]: 22.37 µg/mL; Before transformed by intestinal bacteria [5, 10]: 22.80 µg/mL; After transformed by intestinal bacteria [5, 11]: 36.28 µg/mL; Before transformed by intestinal bacteria [5, 11]: 35.96 µg/mL; After transformed by intestinal bacteria [5, 12]: 71.00 µg/mL; Before transformed by intestinal bacteria [5, 12]: 73.23 µg/mL; transformation by intestinal bacteria (in words) [5]: not transformed; also recorded: not changed
3 | COc1cc(C(=O)O)cc(CC=C(C)C)c1O [proglobeflowery acid] | 450 ± 11 ×10⁻⁶ cm/s | 534 ± 14 ×10⁻⁶ cm/s | 586 ± 8 ×10⁻⁶ cm/s | 9.60% | 10.58% | 11.61% | 1.95 µg/mL | 4.95 µg/mL | 7.74 µg/mL | 127.39% | 89.93% | 148.57% | 57.32% | 219.09% | 42.47% | 11.11 µg/mL | 17.18 µg/mL | 23.46 µg/mL | 105 ± 4 ×10⁻⁶ cm/s | 223 ± 16 ×10⁻⁶ cm/s | Papp at 180 min, 20 mg/mL ([3]; AP→BL): 123 ± 26 ×10⁻⁶ cm/s; Papp at 180 min, 20 mg/mL ([3]; BL→AP): 142 ± 5 ×10⁻⁶ cm/s; Papp at 180 min, 30 mg/mL ([3]; AP→BL): 181 ± 22 ×10⁻⁶ cm/s; Papp at 180 min, 30 mg/mL ([3]; BL→AP): 105 ± 4 ×10⁻⁶ cm/s; absorption mechanism [4, 13]: mainly through passive diffusion; After transformed by intestinal bacteria [5, 9]: 32.40 µg/mL; Before transformed by intestinal bacteria [5, 10]: 2.55 µg/mL; After transformed by intestinal bacteria [5, 11]: 67.09 µg/mL; Before transformed by intestinal bacteria [5, 11]: 4.78 µg/mL; After transformed by intestinal bacteria [5, 12]: 134.85 µg/mL; Before transformed by intestinal bacteria [5, 12]: 6.67 µg/mL; transformation by intestinal bacteria (in words) [5]: not transformed; also recorded: not changed
4 | COc1ccc(C(=O)O)cc1OC [veratric acid] | 127 ± 4 ×10⁻⁶ cm/s | 111 ± 7 ×10⁻⁶ cm/s | 142 ± 3 ×10⁻⁶ cm/s | 27.04% | 21.02% | 28.12% | 0.59 µg/mL | 1.64 µg/mL | 2.02 µg/mL | 109.67% | 95.04% | 127.58% | 84.75% | 131.58% | 80.33% | 0.92 µg/mL | 1.62 µg/mL | 2.79 µg/mL | 104 ± 5 ×10⁻⁶ cm/s | 236 ± 5 ×10⁻⁶ cm/s | Papp at 180 min, 20 mg/mL ([3]; AP→BL): 105 ± 15 ×10⁻⁶ cm/s; Papp at 180 min, 20 mg/mL ([3]; BL→AP): 210 ± 4 ×10⁻⁶ cm/s; Papp at 180 min, 30 mg/mL ([3]; AP→BL): 109 ± 4 ×10⁻⁶ cm/s; Papp at 180 min, 30 mg/mL ([3]; BL→AP): 199 ± 4 ×10⁻⁶ cm/s; absorption mechanism [4, 13]: mainly through passive diffusion; After transformed by intestinal bacteria [5, 9]: 3.22 µg/mL; Before transformed by intestinal bacteria [5, 10]: 2.81 µg/mL; After transformed by intestinal bacteria [5, 11]: 7.44 µg/mL; Before transformed by intestinal bacteria [5, 11]: 6.10 µg/mL; After transformed by intestinal bacteria [5, 12]: 12.78 µg/mL; Before transformed by intestinal bacteria [5, 12]: 13.39 µg/mL; transformation by intestinal bacteria (in words) [5]: not transformed; also recorded: not changed
